Reference: EP2475361B1, “N-SUBSTITUTED BENZENEPROPANAMIDES FOR USE IN THE TREATMENT OF PAIN AND INFLAMMATION” (Novaremed Ltd., priority 2009, dated 2011)

How the values were obtained:
Balb/c mice [1] = assay: Hot-Plate Test (antinociceptive effect, sub-chronic administration); format: in vivo; details: hot plate 52°C; 0.1 or 5 mg/Kg po daily for 16 days; tested on days 1, 8 and 15; compared with Diclofenac 10 mg/kg
Description: The objective of the study was to assess antinociceptive activity of tested items in the hot plate tests in mice, when administered sub-chronically. Measuring paw licking or jumping response time elapses following placement on heated surface (hot plate) was used to determine potential antinociceptive effect in mice.
A total of 42 Balb/c mice (12weeks old) were utilized. The mice were approximately 25g males at study initiation. The minimum and maximum weights of the group were within a range of ±10 % of group mean weight.
Compounds 2 and 3 were tested and compared with Diclofenac® (Perigo). DMSO solutions were used. Six groups of mice (each having n=7 or n=8 mice) were tested, the last group receiving Diclofenac®.
All groups received the drugs daily po for 16 days. Hot plate experiments were performed on days; 1, 8 and 15.
The hot plate is maintained thermostatically at a temperature of 52°C. One hour before the administration of the drugs, mice are tested in the hot plate. At time 0 the mice are administered with the test compound and the response to the hot plate is measured again at different times: 60,120,180, 240, 300 and 360 min.
Results are expressed as: Delta from maximum response [baseline vs. maximum response]; Absolute measures over time; and Accumulated time.

Balb/c mice [2] = assay: Formalin test; format: in vivo; details: formalin 1% intraplantar 3 h or 4 h after treatment; 0.2, 1, 2.5 mg/kg i.p.; paw licking 0-5 min and 20-30 min; Figures 12a-12e
Method: Formalin test. The method used was similar to that described by Hunscaar and Hole (1987) "The formalin test in mice: dissociation between inflammatory and non-inflammatory pain," Pain 30, pp.[…].
Five animals are used in each group and two to three hours after oral administration of the conjugates, 40 µl or 20 µl (rats or mice, respectively) of a 1% formalin (in 0.9% saline) solution is injected subcutaneously into the dorsal surface hind paw. The formalin induced typical flinching behaviour of the injected paw was counted. The animals were returned to a glass chamber and the total time spent by the animal licking or biting the injected paw was measured. Formalin induced pain behaviour is biphasic. The duration of paw licking was determined during the following two time periods: 0-5 min (first-neurogenic phase) and 20-30 min (second-inflammatory phase) after formalin injection. Part a. Male mice (Balb/c mice, 27 weeks old, not naïve), were divided in 4 groups (5 mice per group) and treated (0 min, i.p.) with the following formulations, respectively: […]
Part b. Male mice (Balb/c mice, 27 weeks old, not naive), were divided in 4 groups (5 mice in groups) and treated (0 min, i.p.) with the following formulations, respectively: […]

Compound | pain relief (antinociceptive effect) (Balb/c mice [1]) | anti-inflammatory properties (Balb/c mice [2])
CC(O)COCC(Cc1ccc(O)cc1)NC(=O)CCc1ccccc1 (stereo not drawn) [Compound 2] | effective as pain relievers | anti-inflammatory properties
O=C(CCc1ccccc1)NC(COCCO)Cc1ccc(O)cc1 (stereo not drawn) [Compound 3] | effective as pain relievers | –
